Experimental data reported in US5500424A, “Pyrimidine and pyridine derivatives, their production and use” (Nihon Nohyaku Co., Ltd., priority 1993, dated 1996).

Key:
[1] = tested on: hamsters fed on a high-cholesterol diet; assay: Serum cholesterol lowering activity in hamsters fed on a high-cholesterol diet; type: in vivo, Male Syrian hamsters; settings: Mesocricetus auratus, 30 mg/kg per day for 4 days, 24 hours after last administration, read-out: Reduction rate of total serum cholesterol concentration
Description: Serum cholesterol lowering activity in hamsters fed on a high-cholesterol diet
Male Syrian hamsters of 10-week-old were divided into three groups. The first group (normal group) was fed an ordinary diet for 4 days. The second group (control group) was fed a high cholesterol diet (containing 0.5% cholesterol and 8.0% coconut oil) for 4 days. The third group (treated group) was fed a high cholesterol diet and was treated with a compound for 4 days. Simultaneously with the beginning of the above feeding, the compound was suspended in a 0.5% carboxymethyl cellulose solution and administered to the treated group, in a dose of 30 mg (in terms of the compound) per kg of body weight per day for 4 days. A 0.5% carboxymethyl cellulose solution was also administered to the normal group and the control group in the same manner as above.
After 24 hours of the last administration, blood was collected and the cholesterol concentration in serum was measured by an enzymatic method. The reduction rate of the total serum cholesterol concentration was calculated from values obtained for the three groups by the following equation. [formula] wherein A: the serum cholesterol concentration of the control group.
B: the serum cholesterol concentration of the treated group.
C: the serum cholesterol concentration of the normal group.

[2] = tested on: cholesterol esterification in macrophages (J774 A.I cells); assay: Inhibitory effect on cholesterol esterification in macrophages; type: cell-based; settings: Mus musculus, AcLDL-loaded J774 A.I cells, read-out: Inhibition rate
Description: Inhibitory effect on cholesterol esterification in macrophages
The test was carried out by a modification of the method of Goldstein et al. [Pro. Nat. Acad. Sci. U.S.A. 71, 4288 (1974)]. J774 A.I cells, the mouse macrophage-like cell line, were suspended in Dulbecco's modified Eagle's medium (DMEM) containing 10% fetal calf serum (FCS), in a proportion of 3×10^5 cells per 2 ml and were seeded into 6-well plates. The cells were cultured under a humidified atmosphere of 95% air/5% CO2 at 37° C. for 24 hours. The medium was replaced by 1 ml of DMEM containing 10% of FCS and 50 μg/ml of acetylated human low density lipoprotein (AcLDL), followed by culturing for 16 hours. Five microliters of each compound dissolved in dimethyl sulfoxide was added to the medium, and the cells were cultured for another 2 hours. Then, [^14 C]oleate (2×10^6 dpm/well) bovine serum albumin complex was added in the medium. After 2 hours of culture, cells were collected and the cholesterol-esterifying activity was determined by measuring radioactivity incorporated into cholesterol esters in the cells. The recovery of the cholesterol esters was determined by the addition of [^3 H]cholesteryl oleate, and the esterifying activity was corrected using the recovery. As to the inhibitory activity on cholesterol esterification of the compound to be tested, the inhibition rate was calculated by the following equation. [formula] wherein A: the cholesterol-esterifying activity of AcLDL-loaded cells to which the compound to be tested was added.
B: the cholesterol-esterifying activity of AcLDL-loaded cells to which dimethyl sulfoxide was added.

[3] = molecular target: T1, acyl-CoA:cholesterol acyltransferase (ACAT) (Oryctolagus cuniculus, UniProt G1SFD9); assay: Inhibitory activity on acyl-CoA:cholesterol acyltransferase (ACAT); type: biochemical, white rabbit; settings: rabbit intestinal mucosa microsomes, read-out: Inhibition rate
T1 construct: The intestinal mucosa of a white rabbit was homogenized and microsomal fraction was obtained; from tissue; host or cells: white rabbit intestinal mucosa, microsomal fraction
T1 sequence (G1SFD9 1-524): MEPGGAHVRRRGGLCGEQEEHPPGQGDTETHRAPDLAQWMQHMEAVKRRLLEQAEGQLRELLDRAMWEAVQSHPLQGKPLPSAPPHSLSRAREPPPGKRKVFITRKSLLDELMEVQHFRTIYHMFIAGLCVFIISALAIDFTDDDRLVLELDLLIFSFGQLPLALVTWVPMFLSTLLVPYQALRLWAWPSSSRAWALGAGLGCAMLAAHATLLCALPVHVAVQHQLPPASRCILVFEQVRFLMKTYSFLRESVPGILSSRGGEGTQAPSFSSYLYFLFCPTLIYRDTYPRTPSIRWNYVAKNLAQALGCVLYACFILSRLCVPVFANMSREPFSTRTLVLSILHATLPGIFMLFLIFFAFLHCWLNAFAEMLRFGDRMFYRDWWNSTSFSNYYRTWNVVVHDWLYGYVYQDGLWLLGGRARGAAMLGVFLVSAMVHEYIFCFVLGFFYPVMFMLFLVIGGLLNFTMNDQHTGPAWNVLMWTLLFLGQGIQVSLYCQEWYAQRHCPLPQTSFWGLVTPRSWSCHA
Description: Inhibitory activity on acyl-CoA:cholesterol acyltransferase (ACAT)
The enzyme used in the test was prepared according to the method of Heider et al. [J. Lipid, Res. 24, 1127 (1983)]. The intestinal mucosa of a white rabbit was homogenized and microsomal fraction was obtained by stepwise centrifugation. The microsomal fraction was suspended in 0.154M phosphate buffer (pH 7.4) and stored at -80° C. until use.
ACAT activity was determined by a modification of the method of Helgerud et al. [J. Lipid Res. 22, 271 (1981)] by measuring radioactivity incorporated into cholesterol esters from [1-^14 C]oleyl-CoA, as an indication. As to the ACAT-inhibitory activity of each compound to be tested, the inhibition rate was calculated by the following equation. [formula]

Structure (SMILES)	inhibition in vivo at 30 mg/kg [1]	inhibition at 0.3 µM [2]	inhibition at 0.01 µM [3]	inhibition at 1 µM [2]	inhibition at 1 µM ([3]; 1 μM)
CCc1cccc(CC)c1NC(=O)Nc1cnc(N2CCCCC2)nc1-c1ccccc1Cl [Compound 55, N-[4-(2-Chlorophenyl)-2-(N-piperidino)pyrimidin-5-yl]-N'-(2,6-diethylphenyl)urea]	77.5%	34.9%	75.7%	–	–
CCc1cccc(CC)c1NC(=O)Nc1cnc(-c2ccccc2)nc1-c1ccccc1C(F)(F)F [Compound 37, N-(2,6-Diethylphenyl)-N'-[2-phenyl-4-(2-trifluoromethylphenyl)pyrimidin-5-yl]urea]	63.3%	67.1%	72.3%	87.2%	–
Cc1ccccc1-c1nc(-c2ccccc2)ncc1NC(=O)Nc1c(C(C)C)cccc1C(C)C [Compound 36, N-(2,6-Diisopropylphenyl)-N'-[4-(2-methylphenyl)-2-phenylpyrimidin-5-yl]urea]	63.4%	51.6%	72.9%	–	–
CC(C)c1cccc(C(C)C)c1NC(=O)Nc1cnc(-c2ccccc2)nc1-c1ccccc1Cl [Compound 15, N-[4-(2-Chlorophenyl)-2-phenylpyrimidin-5-yl]-N'-(2,6-diisopropylphenyl)urea]	57.6%	29.5%	67.6%	73.3%	99.5%
CC(C)c1cccc(C(C)C)c1NC(=O)Nc1cnc(-c2ccccc2)nc1-c1ccccc1 [Compound 32, N-(2,6-Diisopropylphenyl)-N'-(2,4-diphenylpyrimidin-5-yl)urea]	63.7%	58%	73.5%	74.3%	–
